System: CHO cells
Experiment: Biotium XTT cell viability kit
Format: cell-based, Chinese hamster
Conditions: 24 hours, medium with 5% serum

Q: With `Cc1nc(N2CCN(C(=O)c3ccco3)CC2)c2c3c(sc2n1)CC(C)(C)CC3` [Compound 24] as the molecule, how does the “cytotoxicity (no cytotoxicity up to)” value read?
A: Its value is over 10 µM.

Reference: paper PMC9841585 (ACS Medicinal Chemistry Letters, 2022)
